Measurements reported in ChEMBL document CHEMBL1201862, “PubChem BioAssay data set” (2004).
The source made the active and inactive calls.

How the values were obtained:
Type in all cases: functional
[1] = molecular target: Rho-associated protein kinase 1 (Homo sapiens, UniProt Q13464);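 also: measured within a broad kinome-wide panel profiling many kinases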
[2] = molecular target: Insulin-like growth factor 1 receptor (Homo sapiens, UniProt P08069); test: Navigating the Kinome. Panel member name: IGF1R
Insulin-like growth factor 1 receptor, sequence (P08069 31-736 limits assumed): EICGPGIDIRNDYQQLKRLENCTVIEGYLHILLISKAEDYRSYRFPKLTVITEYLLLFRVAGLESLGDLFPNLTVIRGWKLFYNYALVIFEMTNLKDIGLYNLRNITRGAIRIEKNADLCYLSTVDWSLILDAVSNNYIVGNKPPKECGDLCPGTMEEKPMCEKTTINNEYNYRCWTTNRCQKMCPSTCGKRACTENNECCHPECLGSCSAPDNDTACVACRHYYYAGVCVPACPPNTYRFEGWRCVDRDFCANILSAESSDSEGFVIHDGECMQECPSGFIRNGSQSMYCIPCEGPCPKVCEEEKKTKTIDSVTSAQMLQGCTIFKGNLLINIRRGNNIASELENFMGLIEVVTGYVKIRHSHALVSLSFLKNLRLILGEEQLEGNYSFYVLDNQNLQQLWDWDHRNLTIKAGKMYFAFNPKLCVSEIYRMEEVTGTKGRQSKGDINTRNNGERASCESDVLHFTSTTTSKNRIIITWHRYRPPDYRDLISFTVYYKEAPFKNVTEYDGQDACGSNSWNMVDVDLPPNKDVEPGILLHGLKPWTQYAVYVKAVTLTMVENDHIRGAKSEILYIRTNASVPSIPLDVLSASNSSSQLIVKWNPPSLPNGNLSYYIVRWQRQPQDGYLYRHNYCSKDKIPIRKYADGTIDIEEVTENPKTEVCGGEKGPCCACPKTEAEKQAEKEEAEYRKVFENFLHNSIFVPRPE
Insulin-like growth factor 1 receptor, sequence (P08069 741-1367 limits assumed): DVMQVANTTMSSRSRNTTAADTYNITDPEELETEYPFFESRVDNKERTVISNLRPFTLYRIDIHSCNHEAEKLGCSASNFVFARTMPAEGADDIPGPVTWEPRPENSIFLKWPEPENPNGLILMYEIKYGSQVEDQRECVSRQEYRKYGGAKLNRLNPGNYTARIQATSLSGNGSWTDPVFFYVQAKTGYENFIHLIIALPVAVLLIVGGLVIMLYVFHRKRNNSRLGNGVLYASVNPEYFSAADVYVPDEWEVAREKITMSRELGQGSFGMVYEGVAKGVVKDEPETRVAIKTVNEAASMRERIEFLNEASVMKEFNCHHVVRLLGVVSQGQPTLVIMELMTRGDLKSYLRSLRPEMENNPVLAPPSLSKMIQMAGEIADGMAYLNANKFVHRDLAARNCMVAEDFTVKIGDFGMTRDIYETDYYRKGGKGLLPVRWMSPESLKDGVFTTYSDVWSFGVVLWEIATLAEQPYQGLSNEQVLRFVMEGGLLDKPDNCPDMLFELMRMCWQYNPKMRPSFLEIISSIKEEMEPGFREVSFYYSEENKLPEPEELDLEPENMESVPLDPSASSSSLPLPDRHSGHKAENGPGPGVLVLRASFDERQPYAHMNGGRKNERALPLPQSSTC

Activated CDC42 kinase 1 = Activated CDC42 kinase 1 (Homo sapiens, UniProt Q07912); test: Navigating the Kinome. Panel member name: ACK1
Activated CDC42 kinase 1, sequence (Q07912 whole entry): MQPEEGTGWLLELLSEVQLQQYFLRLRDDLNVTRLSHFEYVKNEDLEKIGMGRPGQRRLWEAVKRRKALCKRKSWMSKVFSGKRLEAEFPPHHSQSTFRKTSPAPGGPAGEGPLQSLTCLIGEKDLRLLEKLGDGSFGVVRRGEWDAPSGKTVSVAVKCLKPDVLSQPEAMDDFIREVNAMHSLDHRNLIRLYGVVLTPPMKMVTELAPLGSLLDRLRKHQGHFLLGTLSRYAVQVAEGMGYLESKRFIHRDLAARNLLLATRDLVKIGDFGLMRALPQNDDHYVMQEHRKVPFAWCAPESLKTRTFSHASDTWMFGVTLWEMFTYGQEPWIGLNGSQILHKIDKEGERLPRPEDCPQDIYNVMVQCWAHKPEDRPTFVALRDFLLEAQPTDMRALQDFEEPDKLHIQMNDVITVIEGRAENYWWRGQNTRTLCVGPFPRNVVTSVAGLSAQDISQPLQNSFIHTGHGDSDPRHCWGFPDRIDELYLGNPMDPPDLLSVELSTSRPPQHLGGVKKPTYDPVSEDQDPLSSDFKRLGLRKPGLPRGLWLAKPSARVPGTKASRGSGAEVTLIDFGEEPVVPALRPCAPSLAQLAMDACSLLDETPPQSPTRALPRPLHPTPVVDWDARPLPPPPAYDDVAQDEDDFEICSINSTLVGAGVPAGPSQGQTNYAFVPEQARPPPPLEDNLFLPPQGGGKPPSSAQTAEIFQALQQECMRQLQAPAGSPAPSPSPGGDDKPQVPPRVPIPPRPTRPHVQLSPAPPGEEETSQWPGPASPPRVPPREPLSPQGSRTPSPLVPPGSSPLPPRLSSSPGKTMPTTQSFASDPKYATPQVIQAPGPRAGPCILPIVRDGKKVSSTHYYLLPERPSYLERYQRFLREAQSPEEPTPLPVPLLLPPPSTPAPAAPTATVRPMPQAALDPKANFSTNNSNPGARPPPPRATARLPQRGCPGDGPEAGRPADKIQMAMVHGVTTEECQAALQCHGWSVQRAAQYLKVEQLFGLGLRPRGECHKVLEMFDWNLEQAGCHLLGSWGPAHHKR

[3] = molecular target: T1, Receptor-type tyrosine-protein kinase FLT3 (Homo sapiens, UniProt P36888);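 also: FLT3 was tested as one member of a kinome-wide kinase panel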
T1 sequence (P36888 whole entry): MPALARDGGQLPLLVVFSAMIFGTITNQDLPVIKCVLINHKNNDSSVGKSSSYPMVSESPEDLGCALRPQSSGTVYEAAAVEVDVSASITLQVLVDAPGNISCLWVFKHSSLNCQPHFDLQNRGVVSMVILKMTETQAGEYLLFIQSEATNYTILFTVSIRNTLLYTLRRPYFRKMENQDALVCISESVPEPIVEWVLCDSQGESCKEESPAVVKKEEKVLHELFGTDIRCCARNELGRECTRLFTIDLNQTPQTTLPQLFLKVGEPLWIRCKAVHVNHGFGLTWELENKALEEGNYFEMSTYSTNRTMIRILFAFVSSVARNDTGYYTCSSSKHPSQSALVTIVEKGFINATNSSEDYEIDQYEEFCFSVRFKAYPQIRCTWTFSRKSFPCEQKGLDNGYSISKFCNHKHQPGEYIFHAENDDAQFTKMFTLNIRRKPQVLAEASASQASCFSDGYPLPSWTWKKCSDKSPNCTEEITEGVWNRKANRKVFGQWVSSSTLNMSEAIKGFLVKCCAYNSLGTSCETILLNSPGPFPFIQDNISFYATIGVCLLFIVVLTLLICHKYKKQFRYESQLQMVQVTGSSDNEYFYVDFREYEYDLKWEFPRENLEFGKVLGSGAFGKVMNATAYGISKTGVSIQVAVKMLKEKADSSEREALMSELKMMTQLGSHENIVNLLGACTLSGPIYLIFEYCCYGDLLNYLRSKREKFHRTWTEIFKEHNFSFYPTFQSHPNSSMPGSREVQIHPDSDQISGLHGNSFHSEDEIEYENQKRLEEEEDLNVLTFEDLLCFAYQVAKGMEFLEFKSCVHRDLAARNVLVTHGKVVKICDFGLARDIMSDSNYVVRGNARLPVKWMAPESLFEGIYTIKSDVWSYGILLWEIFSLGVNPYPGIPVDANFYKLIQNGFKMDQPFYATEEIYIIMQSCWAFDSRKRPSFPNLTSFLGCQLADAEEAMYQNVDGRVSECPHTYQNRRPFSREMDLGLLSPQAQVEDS

Aurora kinase A = molecular target: T2, Aurora kinase A (Homo sapiens, UniProt O14965);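 also: value from the Navigating the Kinome kinase panel profiling, panel entry STK6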
T2 sequence (O14965 whole entry): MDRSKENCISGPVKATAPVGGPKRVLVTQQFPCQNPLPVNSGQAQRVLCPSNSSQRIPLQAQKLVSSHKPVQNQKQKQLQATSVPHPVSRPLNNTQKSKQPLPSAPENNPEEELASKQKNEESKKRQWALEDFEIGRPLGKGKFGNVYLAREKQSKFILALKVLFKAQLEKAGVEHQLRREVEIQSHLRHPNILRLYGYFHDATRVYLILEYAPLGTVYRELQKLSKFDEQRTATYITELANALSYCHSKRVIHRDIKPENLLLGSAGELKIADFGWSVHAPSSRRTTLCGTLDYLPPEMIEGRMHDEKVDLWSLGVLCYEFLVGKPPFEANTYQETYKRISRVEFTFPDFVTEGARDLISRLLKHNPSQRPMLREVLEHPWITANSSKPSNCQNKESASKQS

[4] = molecular target: Glycogen synthase kinase-3 beta (Homo sapiens, UniProt P49841);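 also: value comes from a broad kinome profiling panel, with GSK3B as the panel member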
Glycogen synthase kinase-3 beta, sequence (P49841 whole entry): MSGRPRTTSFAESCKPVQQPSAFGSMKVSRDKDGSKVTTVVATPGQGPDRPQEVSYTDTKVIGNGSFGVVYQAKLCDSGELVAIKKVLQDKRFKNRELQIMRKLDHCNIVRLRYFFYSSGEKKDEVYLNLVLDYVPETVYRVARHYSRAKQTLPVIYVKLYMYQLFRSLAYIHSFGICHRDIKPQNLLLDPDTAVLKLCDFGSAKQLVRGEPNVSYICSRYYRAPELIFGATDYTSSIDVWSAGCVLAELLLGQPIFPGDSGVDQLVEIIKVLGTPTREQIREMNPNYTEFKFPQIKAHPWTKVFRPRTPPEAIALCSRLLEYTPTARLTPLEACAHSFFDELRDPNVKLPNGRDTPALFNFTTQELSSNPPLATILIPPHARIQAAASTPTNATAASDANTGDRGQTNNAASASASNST

[5] = molecular target: T3, Mitogen-activated protein kinase kinase kinase kinase 2 (Homo sapiens, UniProt Q12851);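 also: measured as one member of a kinome-wide kinase panel, with MAP4K2 as the panel entry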
T3 sequence (Q12851 whole entry): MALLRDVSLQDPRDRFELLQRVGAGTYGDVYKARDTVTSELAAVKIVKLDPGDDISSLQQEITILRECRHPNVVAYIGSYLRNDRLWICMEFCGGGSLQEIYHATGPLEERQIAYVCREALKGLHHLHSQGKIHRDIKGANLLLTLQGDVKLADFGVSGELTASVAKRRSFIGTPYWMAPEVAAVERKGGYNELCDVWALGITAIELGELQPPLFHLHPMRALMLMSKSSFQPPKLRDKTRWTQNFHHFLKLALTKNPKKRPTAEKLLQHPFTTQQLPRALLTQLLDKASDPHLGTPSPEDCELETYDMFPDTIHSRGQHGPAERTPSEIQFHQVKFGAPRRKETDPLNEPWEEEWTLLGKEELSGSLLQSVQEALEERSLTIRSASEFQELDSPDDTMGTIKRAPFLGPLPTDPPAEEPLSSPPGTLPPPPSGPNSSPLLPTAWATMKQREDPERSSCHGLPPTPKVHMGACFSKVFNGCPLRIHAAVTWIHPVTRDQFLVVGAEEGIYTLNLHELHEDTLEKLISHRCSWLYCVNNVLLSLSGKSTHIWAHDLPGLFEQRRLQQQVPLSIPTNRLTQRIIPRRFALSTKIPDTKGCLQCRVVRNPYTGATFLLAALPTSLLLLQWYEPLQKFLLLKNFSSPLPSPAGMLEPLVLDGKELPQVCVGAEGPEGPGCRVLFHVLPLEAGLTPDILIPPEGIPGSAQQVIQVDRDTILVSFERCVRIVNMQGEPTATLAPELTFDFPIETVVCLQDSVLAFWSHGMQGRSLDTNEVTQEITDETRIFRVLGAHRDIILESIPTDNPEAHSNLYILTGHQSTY

[6] = molecular target: Leucine-rich repeat serine/threonine-protein kinase 2 (Homo sapiens, UniProt Q5S007);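 also: value from a broad kinome-wide panel profiling study in which LRRK2 was one of the kinases tested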

Rho-associated protein kinase 1, sequence (Q13464 whole entry): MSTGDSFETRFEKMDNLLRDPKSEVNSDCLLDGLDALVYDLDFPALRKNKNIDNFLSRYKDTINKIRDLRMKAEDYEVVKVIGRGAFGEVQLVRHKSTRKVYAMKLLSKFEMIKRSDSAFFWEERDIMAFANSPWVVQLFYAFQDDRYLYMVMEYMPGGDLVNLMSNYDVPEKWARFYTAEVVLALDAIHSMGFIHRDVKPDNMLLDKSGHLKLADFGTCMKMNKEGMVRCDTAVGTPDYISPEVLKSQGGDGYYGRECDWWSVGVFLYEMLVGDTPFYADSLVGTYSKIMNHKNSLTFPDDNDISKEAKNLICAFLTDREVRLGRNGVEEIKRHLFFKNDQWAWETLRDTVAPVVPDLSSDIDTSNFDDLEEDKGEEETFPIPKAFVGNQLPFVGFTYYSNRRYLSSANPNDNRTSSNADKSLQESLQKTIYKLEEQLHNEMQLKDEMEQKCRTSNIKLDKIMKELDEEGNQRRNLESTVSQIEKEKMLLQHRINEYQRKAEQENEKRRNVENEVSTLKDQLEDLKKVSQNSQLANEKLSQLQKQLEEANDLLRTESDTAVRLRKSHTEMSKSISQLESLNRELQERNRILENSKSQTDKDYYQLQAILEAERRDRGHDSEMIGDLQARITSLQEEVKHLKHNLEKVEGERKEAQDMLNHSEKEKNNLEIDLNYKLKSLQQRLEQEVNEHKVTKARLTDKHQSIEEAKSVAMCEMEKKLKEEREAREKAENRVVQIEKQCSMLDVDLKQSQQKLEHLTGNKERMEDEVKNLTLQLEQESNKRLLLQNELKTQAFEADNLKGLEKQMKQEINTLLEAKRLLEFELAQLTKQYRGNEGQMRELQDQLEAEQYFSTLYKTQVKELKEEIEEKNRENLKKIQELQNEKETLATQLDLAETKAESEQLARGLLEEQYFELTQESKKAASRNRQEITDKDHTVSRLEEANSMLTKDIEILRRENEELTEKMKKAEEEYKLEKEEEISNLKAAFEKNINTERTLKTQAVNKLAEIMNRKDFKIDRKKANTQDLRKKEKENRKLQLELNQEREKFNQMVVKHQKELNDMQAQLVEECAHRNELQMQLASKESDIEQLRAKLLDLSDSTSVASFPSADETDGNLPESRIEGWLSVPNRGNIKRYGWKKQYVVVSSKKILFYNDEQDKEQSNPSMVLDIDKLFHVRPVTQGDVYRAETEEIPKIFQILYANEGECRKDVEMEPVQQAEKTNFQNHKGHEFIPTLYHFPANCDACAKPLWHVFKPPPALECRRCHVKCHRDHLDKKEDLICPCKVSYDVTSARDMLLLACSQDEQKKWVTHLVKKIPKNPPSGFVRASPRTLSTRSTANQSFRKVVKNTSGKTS

Row | Compound | Ki [1] | Ki [2] | Ki (Activated CDC42 kinase 1) | Ki [3] | Ki (Aurora kinase A) | Ki [4] | Ki [5] | Ki [6]
1 | COc1cccc(C(C)NC(=O)c2sc(-c3ccncc3)nc2C)c1 (centres undefined) | 31.6 nM (active) | > 2510 nM (inactive) | > 3980 nM (inactive) | > 3160 nM (inactive) | > 1580 nM (inactive) | > 3980 nM (inactive) | > 2510 nM (inactive) | > 2510 nM (inactive)
2 | CCCCC(=O)Nc1cc(-c2c[nH]c3ncccc23)cc(Cl)n1 | > 31.6 nM (inactive) | > 2510 nM (inactive) | > 3980 nM (inactive) | > 2510 nM (inactive) | > 1580 nM (inactive) | > 3980 nM (inactive) | > 2510 nM (inactive) | > 2510 nM (inactive)
3 | Oc1ccc(-c2nc(-c3ccncc3)c(-c3ccc(F)cc3)[nH]2)cc1 [SB-202190] | > 3980 nM (inactive) | 1260 nM (active) | > 3980 nM (inactive) | > 2510 nM (inactive) | > 1580 nM (inactive) | > 2510 nM (inactive) | > 2510 nM (inactive) | > 2510 nM (inactive)
